Tested on: not listed separately
Test: Liver microsomal stability (extraction ratio)
Assay type: in vitro ADME
Conditions: test compound 1 μM, 0.5 mg/mL liver microsomes, NADPH, 37° C.; species not stated (method: mouse, rat, and human)
Procedure: Protocol for Liver Microsomal Stability (Extraction Ratio)
Liver Microsomal Stability. Microsomal stability studies (Chrovian et al, “1H-Pyrrolo[3,2-b]pyridine GluN2B-Selective Negative Allosteric Modulators”. ACS Med Chem Lett. 2019 Jan. 10; 10(3):261-266) were conducted on a Biomek® FX Robotic Liquid Handling Workstation (Beckman Coulter, Brea, CA), which consists of a 96-channel pipette head, a 12-position workstation deck, and a plate incubator. Test compounds (1 μM) were spiked in a reaction mix consisting of 100 mM potassium phosphate buffer (pH 7.4), 3 mM MgCl2, and 0.5 mg/mL liver microsomes from mouse, rat, and human (BD Gentest). The reaction was brought to 37° C. and initiated by adding NADPH to a final concentration of 1 mM. After mixing on the plate deck, 50 μL aliquots were excised from the reaction plate at 0, 5, 10, 20, 40, and 60 min and quenched with four volumes of acetonitrile spiked with […] of the internal standard phenytoin. Quenched plates were centrifuged at 5700 rpm for 10 min at 4° C., and supernatant was diluted 1:3 in water before LC/MS/MS analysis. The compound half-lives were derived from plots of the ln of percent remaining compound over time to determine the intrinsic clearance. The predicted hepatic clearance was derived from the intrinsic clearance value using equations from the well-stirred model (Current Drug Metabolism, 2008, 9, 940-951), where no correction was made plasma protein binding and the blood to plasma concentration ratio was assumed to be one. The extraction ratio (ER) was calculated by dividing the predicted hepatic clearance by species blood flow (Q), where Q is 90, 55, and 21.7 mL/min/kg for mouse, rat and human, respectively

Row | Extraction Ratio @ 1 μM | Compound
1 | 0.41 | CN(C)C(=O)Cn1ncc2ncc(-c3ccc(F)c(C(F)F)c3)nc21 [Example 10, 2-[6-[3-(Difluoromethyl)-4-fluoro-phenyl]pyrazolo[3,4-b]pyrazin-1-yl]-N,N-dimethyl-acetamide]
2 | 0.54 | CN(C)C(=O)Cn1ncc2ncc(-c3ccc(Cl)c(C(F)F)c3)nc21 [Example 12, 2-[6-[4-Chloro-3-(difluoromethyl)phenyl]pyrazolo[3,4-b]pyrazin-1-yl]-N,N-dimethyl-acetamide]
3 | 0.41 | O=C(Cn1nc(F)c2ncc(-c3ccc(F)c(C(F)F)c3)nc21)N1CCC1 [Example 25, 1-(Azetidin-1-yl)-2-[6-[3-(difluoromethyl)-4-fluoro-phenyl]-3-fluoro-pyrazolo[3,4-b]pyrazin-1-yl]ethanone]
4 | 0.45 | O=C(Cn1ncc2ncc(-c3ccc(F)c(OC(F)F)c3)nc21)N1CCC1 [Example 28, 1-(Azetidin-1-yl)-2-[6-[3-(difluoromethoxy)-4-fluoro-phenyl]pyrazolo[3,4-b]pyrazin-1-yl]ethanone]
5 | 0.46 | O=C(Cn1ncc2ncc(-c3ccc(F)c(OC(F)F)c3)nc21)N1CC(F)C1 [Example 37, 2-[6-[3-(Difluoromethoxy)-4-fluoro-phenyl]pyrazolo[3,4-b]pyrazin-1-yl]-1-(3-fluoroazetidin-1-yl)ethanone]

Molecular target: T1, human GluN1/GluN2B NMDA receptors (Homo sapiens, UniProt Q13224)
T1 construct: expressed in transfected cells
Test: Cell-based calcium flux (FLIPR) assay on cloned human NR1/NR2B ion channels expressed in mammalian cells
Conditions: standard assay, glutamate ~EC40 plus 10 μM glycine, cells expressing human GluN1/GluN2B
Procedure: Effects of Test Articles on Cloned Human NR1/NR2B Ion Channels Expressed in Mammalian Cells
NMDA receptors are ion channels that are highly permeable to Ca^2+ ions, rendering it possible to monitor NMDA receptor function using cell-based calcium flux assay. In this assay, co-agonists glutamate and glycine are added to cells heterologously expressing human GluN1/GluN2B NMDA receptors to initiate cellular Ca^2+ influx. The time course of the changes in intracellular calcium is measured using a fluorescent dye and a FLIPR (Fluorometric Imaging Plate Reader) device.
Twenty four hours before measurements, the expression of the NMDA receptors in the stable cell line is induced with Tet-On inducible system in the presence of a non-selective NMDA receptor blocker. […] After 1 h incubation at the room temperature, the dye is washed away with the assay buffer (137 mM NaCl (standard assay) or 150 mM (HTS assay), 4 mM KCl (standard assay) or 3 mM (HTS assay), 2 mM CaCl2), 0.01 mM EDTA, 10 mM HEPES and 5 mM D-glucose; pH 7.4) In the FLIPR TETRA reader, various concentrations of the test compounds are added to the cells for 5 min while fluorescence is monitored to detect potential agonist activity. […] The fluorescent signal in the presence of test compounds is quantified and normalized to the signal defined by the appropriate control wells.

T1 sequence (Q13224 27-1484, other chains not shown): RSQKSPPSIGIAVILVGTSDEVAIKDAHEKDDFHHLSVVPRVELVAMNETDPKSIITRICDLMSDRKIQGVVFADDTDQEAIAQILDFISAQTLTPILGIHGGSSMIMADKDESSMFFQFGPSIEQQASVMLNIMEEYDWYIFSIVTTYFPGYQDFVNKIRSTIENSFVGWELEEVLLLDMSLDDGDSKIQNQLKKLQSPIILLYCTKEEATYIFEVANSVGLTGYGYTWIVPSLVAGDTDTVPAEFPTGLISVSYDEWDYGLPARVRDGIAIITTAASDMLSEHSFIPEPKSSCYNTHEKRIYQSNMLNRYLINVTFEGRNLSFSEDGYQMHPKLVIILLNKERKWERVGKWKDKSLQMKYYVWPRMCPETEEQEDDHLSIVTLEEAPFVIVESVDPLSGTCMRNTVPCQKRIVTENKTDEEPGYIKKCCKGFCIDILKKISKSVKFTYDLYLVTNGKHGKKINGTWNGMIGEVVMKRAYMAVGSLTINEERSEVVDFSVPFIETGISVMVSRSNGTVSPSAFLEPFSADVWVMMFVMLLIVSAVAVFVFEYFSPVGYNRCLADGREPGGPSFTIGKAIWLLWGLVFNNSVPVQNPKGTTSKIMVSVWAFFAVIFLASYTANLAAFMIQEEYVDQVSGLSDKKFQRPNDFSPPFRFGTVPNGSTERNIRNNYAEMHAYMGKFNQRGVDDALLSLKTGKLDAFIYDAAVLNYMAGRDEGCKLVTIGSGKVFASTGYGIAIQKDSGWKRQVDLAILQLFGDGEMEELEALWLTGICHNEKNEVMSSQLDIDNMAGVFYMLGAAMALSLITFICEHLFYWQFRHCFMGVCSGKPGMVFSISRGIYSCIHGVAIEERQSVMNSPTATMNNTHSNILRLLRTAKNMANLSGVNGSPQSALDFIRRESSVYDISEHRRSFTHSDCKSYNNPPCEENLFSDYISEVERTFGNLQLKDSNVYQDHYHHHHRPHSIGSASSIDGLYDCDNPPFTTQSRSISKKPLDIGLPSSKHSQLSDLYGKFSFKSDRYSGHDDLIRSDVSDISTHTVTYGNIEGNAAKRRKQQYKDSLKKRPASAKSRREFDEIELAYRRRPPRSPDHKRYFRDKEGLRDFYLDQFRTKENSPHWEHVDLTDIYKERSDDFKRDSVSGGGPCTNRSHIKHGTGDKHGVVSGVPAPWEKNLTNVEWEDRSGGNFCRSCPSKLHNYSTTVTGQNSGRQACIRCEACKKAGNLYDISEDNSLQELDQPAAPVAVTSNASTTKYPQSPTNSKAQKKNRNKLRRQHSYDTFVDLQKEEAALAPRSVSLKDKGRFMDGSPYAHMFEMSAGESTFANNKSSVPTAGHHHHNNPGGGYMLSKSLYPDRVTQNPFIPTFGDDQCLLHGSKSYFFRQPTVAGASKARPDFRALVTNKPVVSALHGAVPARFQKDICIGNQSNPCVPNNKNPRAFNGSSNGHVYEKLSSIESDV

Row | Compound | IC50
6 | 2-[6-(4-Fluoro-3-methyl-phenyl)pyrazolo[3,4-b]pyrazin-1-yl]-N,N-dimethyl-acetamide [Example 7] | 117 nM
